Reference: article PMC5066224, “A Novel Resveratrol Based Tubulin Inhibitor Induces Mitotic Arrest and Activates Apoptosis in Cancer Cells” (Scientific Reports, 2016)

Experiments:
[1] = system: CEM cells; experiment: Intracellular ROS production (H2DCFDA, flow cytometry); assay type: cell-based, Human; conditions: 5 to 60 min
Protocol: Intracellular ROS generation in cells was assessed using the oxidation-sensitive fluorescent probe 2,7-dichlorodihydro fluorescein diacetate (H2DCFDA) as previously described. CEM cells were treated with SS28 (5 μM) for 5, 10, 15, 30 and 60 min, harvested, washed and incubated with H2DCFDA (30 min at 37 °C) and then fluorescence intensity was analyzed by flow cytometry. H2O2 was used as the positive control.

[2] = system: A549 cells; experiment: Immunofluorescence microscopy of spindle microtubule organisation; assay type: cell-based, human; conditions: A549, positive control, compared to untreated cells
Protocol: Immunofluorescence microscopy was performed as previously described. A549 cells were grown on coverslips coated with gelatin (0.1%). […] After 24 h of the treatment nonspecific antibody binding sites were blocked using FBS following which cells were incubated with antitubulin antibody (1:500) at RT. Coverslips were washed in PBS, incubated in biotinylated antimouse secondary antibody (1:500; RT for 1 h) followed by Streptavidin-FITC (1:200). Finally, cells were mounted with DABCO and images were captured using Zeiss Fluorescence microscope and analyzed using Axio vision software. Colchicine treated cells were used as a positive control.

Compound	intracellular ROS production [1]	effect on chromosomes and mitosis (immunofluorescence) [2]
OO [H2O2, reference compound]	distinct ROS production	–
COc1cc2c(c(OC)c1OC)-c1ccc(OC)c(=O)cc1[C@@H](NC(C)=O)CC2 [Colchicine, reference compound]	–	chromosome condensation and metaphase arrest was observed
